Experimental data: PubChem BioAssay AID2060602 (Molecular Pharmacology Branch, DTP, NCI, 2025)

Test system: 648629-189-R-J1-PDC complex spheroids viability
Assay: Anticancer human tumor 648629-189-R-J1-PDC patient-derived bladder carcinoma cell line growth inhibition [CLK]
Conditions: for IC50: curve of first compound; for viability, T/C: stronger effect = lower value
Procedure, shortened: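 Multi-cell-type spheroids combined patient-derived tumor cells with HUVEC endothelial cells and human mesenchymal stem cells. Paired agents were dosed in half-log steps down from about clinical Cmax, or from 10 microM where Cmax was unknown.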

[1] = second compound 0.0316 µM, first compound 0.0316 µM
[2] = second compound 0.0316 µM, first compound 0.1 µM
[3] = second compound 0.0316 µM, first compound 0.316 µM
[4] = second compound 0.0316 µM, first compound 1 µM
[5] = second compound 0.0316 µM, first compound 3.16 µM
[6] = second compound 0.0316 µM, first compound 10 µM
[7] = second compound 0.1 µM, first compound 0.0316 µM
[8] = second compound 0.1 µM, first compound 0.1 µM
[9] = second compound 0.1 µM, first compound 0.316 µM
[10] = second compound 0.1 µM, first compound 1 µM
[11] = second compound 0.1 µM, first compound 3.16 µM
[12] = second compound 0.1 µM, first compound 10 µM
[13] = second compound 0.316 µM, first compound 0.0316 µM
[14] = second compound 0.316 µM, first compound 0.1 µM
[15] = second compound 0.316 µM, first compound 0.316 µM
[16] = second compound 0.316 µM, first compound 1 µM
[17] = second compound 0.316 µM, first compound 3.16 µM
[18] = second compound 0.316 µM, first compound 10 µM
[19] = second compound 1 µM, first compound 0.0316 µM
[20] = second compound 1 µM, first compound 0.1 µM
[21] = second compound 1 µM, first compound 0.316 µM
[22] = second compound 1 µM, first compound 1 µM
[23] = second compound 1 µM, first compound 3.16 µM
[24] = second compound 1 µM, first compound 10 µM
[25] = second compound 3.16 µM, first compound 0.0316 µM
[26] = second compound 3.16 µM, first compound 0.1 µM
[27] = second compound 3.16 µM, first compound 0.316 µM
[28] = second compound 3.16 µM, first compound 1 µM
[29] = second compound 3.16 µM, first compound 3.16 µM
[30] = second compound 3.16 µM, first compound 10 µM
[31] = second compound 10 µM, first compound 0.0316 µM
[32] = second compound 10 µM, first compound 0.1 µM
[33] = second compound 10 µM, first compound 0.316 µM
[34] = second compound 10 µM, first compound 1 µM
[35] = second compound 10 µM, first compound 3.16 µM
[36] = second compound 10 µM, first compound 10 µM
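For viability, T/C in this document: drug exposure lasted seven days before viability readout; 100% = DMSO vehicle control wells.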

## COc1cccc2c1C(=O)c1c(O)c3c(c(O)c1C2=O)CC(O)(C(=O)CO)CC3OC1CC(N)C(O)C(C)O1 (stereo unspecified) + CNC(=O)c1ccc(Nc2nc(OC3CCCC3)c3c(-c4ccc5nc(C)oc5c4)c[nH]c3n2)c(OC)c1
Second compound 0.0316 µM
  IC50: < 0.0316 µM
Second compound 0.1 µM
  IC50: < 0.0316 µM
Second compound 0.316 µM
  IC50: < 0.0316 µM
Second compound 1 µM
  IC50: < 0.0316 µM
Second compound 3.16 µM
  IC50: < 0.0316 µM
Second compound 10 µM
  IC50: < 0.0316 µM
[1]
  viability, T/C: 26.4%
[2]
  viability, T/C: 13.9%
[3]
  viability, T/C: 5.64%
[4]
  viability, T/C: 0.45%
[5]
  viability, T/C: 0.38%
[6]
  viability, T/C: 0.54%
[7]
  viability, T/C: 19.4%
[8]
  viability, T/C: 11.8%
[9]
  viability, T/C: 5.03%
[10]
  viability, T/C: 0.29%
[11]
  viability, T/C: 1.37%
[12]
  viability, T/C: 2.64%
[13]
  viability, T/C: 16.4%
[14]
  viability, T/C: 13.1%
[15]
  viability, T/C: 6.53%
[16]
  viability, T/C: 0.2%
[17]
  viability, T/C: 0.98%
[18]
  viability, T/C: 0.49%
[19]
  viability, T/C: 12.5%
[20]
  viability, T/C: 10.1%
[21]
  viability, T/C: 4.27%
[22]
  viability, T/C: 0.27%
[23]
  viability, T/C: 0.56%
[24]
  viability, T/C: 3.36%
[25]
  viability, T/C: 18.9%
[26]
  viability, T/C: 13.1%
[27]
  viability, T/C: 4.42%
[28]
  viability, T/C: 0.23%
[29]
  viability, T/C: 0.79%
[30]
  viability, T/C: 1.4%
[31]
  viability, T/C: 21.1%
[32]
  viability, T/C: 13.5%
[33]
  viability, T/C: 8.07%
[34]
  viability, T/C: 0.28%
[35]
  viability, T/C: 2.28%
[36]
  viability, T/C: 3.42%

## Nc1ccn(C2OC(CO)C(O)C2(F)F)c(=O)n1 (stereo unspecified) + CNC(=O)c1ccc(Nc2nc(OC3CCCC3)c3c(-c4ccc5nc(C)oc5c4)c[nH]c3n2)c(OC)c1
Second compound 0.0316 µM
  IC50: 0.0382 µM
Second compound 0.1 µM
  IC50: 0.0421 µM
Second compound 0.316 µM
  IC50: < 0.0316 µM
Second compound 1 µM
  IC50: < 0.0316 µM
Second compound 3.16 µM
  IC50: < 0.0316 µM
Second compound 10 µM
  IC50: < 0.0316 µM
[1]
  viability, T/C: 56.8%
[2]
  viability, T/C: 16.1%
[3]
  viability, T/C: 10.6%
[4]
  viability, T/C: 8.41%
[5]
  viability, T/C: 8.43%
[6]
  viability, T/C: 6.82%
[7]
  viability, T/C: 58.7%
[8]
  viability, T/C: 23.9%
[9]
  viability, T/C: 10.1%
[10]
  viability, T/C: 8.46%
[11]
  viability, T/C: 7.09%
[12]
  viability, T/C: 5.88%
[13]
  viability, T/C: 18.1%
[14]
  viability, T/C: 14.3%
[15]
  viability, T/C: 8.69%
[16]
  viability, T/C: 7.21%
[17]
  viability, T/C: 7.97%
[18]
  viability, T/C: 6.5%
[19]
  viability, T/C: 18.2%
[20]
  viability, T/C: 13.3%
[21]
  viability, T/C: 11.8%
[22]
  viability, T/C: 8.47%
[23]
  viability, T/C: 9.1%
[24]
  viability, T/C: 7.07%
[25]
  viability, T/C: 16.2%
[26]
  viability, T/C: 14.8%
[27]
  viability, T/C: 11.2%
[28]
  viability, T/C: 11.7%
[29]
  viability, T/C: 11.2%
[30]
  viability, T/C: 7.1%
[31]
  viability, T/C: 18.1%
[32]
  viability, T/C: 18%
[33]
  viability, T/C: 14.7%
[34]
  viability, T/C: 10.1%
[35]
  viability, T/C: 9.44%
[36]
  viability, T/C: 7.39%

## O=c1[nH]cc(F)c(=O)[nH]1 + CNC(=O)c1ccc(Nc2nc(OC3CCCC3)c3c(-c4ccc5nc(C)oc5c4)c[nH]c3n2)c(OC)c1
Second compound 0.0316 µM
  IC50: 0.881 µM
Second compound 0.1 µM
  IC50: 0.535 µM
Second compound 0.316 µM
  IC50: < 0.0316 µM
Second compound 1 µM
  IC50: < 0.0316 µM
Second compound 3.16 µM
  IC50: < 0.0316 µM
Second compound 10 µM
  IC50: < 0.0316 µM
[1]
  viability, T/C: 107%
[2]
  viability, T/C: 95.1%
[3]
  viability, T/C: 77.4%
[4]
  viability, T/C: 45.8%
[5]
  viability, T/C: 33.2%
[6]
  viability, T/C: 32.5%
[7]
  viability, T/C: 79.9%
[8]
  viability, T/C: 86.9%
[9]
  viability, T/C: 64.8%
[10]
  viability, T/C: 32.2%
[11]
  viability, T/C: 23.9%
[12]
  viability, T/C: 22.9%
[13]
  viability, T/C: 21%
[14]
  viability, T/C: 23.6%
[15]
  viability, T/C: 22.2%
[16]
  viability, T/C: 11.9%
[17]
  viability, T/C: 12.8%
[18]
  viability, T/C: 10.3%
[19]
  viability, T/C: 15.8%
[20]
  viability, T/C: 18.7%
[21]
  viability, T/C: 15.7%
[22]
  viability, T/C: 11.2%
[23]
  viability, T/C: 9.79%
[24]
  viability, T/C: 9.97%
[25]
  viability, T/C: 21.1%
[26]
  viability, T/C: 20.4%
[27]
  viability, T/C: 18.6%
[28]
  viability, T/C: 10.2%
[29]
  viability, T/C: 10.9%
[30]
  viability, T/C: 10.6%
[31]
  viability, T/C: 17.8%
[32]
  viability, T/C: 14.8%
[33]
  viability, T/C: 17.4%
[34]
  viability, T/C: 11.4%
[35]
  viability, T/C: 11.5%
[36]
  viability, T/C: 9.63%
